These results are taken from patent publication US20060292553A1, “Method for study of the genetic and functional variability of HIV and kit for using it” (Bioalliance Pharma, a corporation of France, priority 2004, published 2006).

The test system of test [1] is HIV-1 virus of the patient (recombinant virus). Put plainly: Phenoscript phenotyping, recombinant virus of the patient in the presence of drugs. In kind it is cell-based. From the text:
The principle of the phenotypical tests for resistance is based on the measurement in vitro of the growth of a virus in the patient in the presence of drugs.
Viral RNA derived from the plasma is extracted, then the regions coding for inverse transcriptase and/or protease are amplified using PCR in phenotypical tests. Amplicons are recombined in vitro in a defective vector to form a viral particle. This viral particle is placed in a culture in the presence of increasing concentrations of drugs. The results are expressed in a “fold change” ratio of IC 50 (or IC90) with respect to a control virus which corresponds to the concentration of the drug that inhibits 50% (or 90%) of the viral replication in comparison to the reference wild type virus. The resistance level is defined as a function of thresholds of sensitivity (cut off).
(§1) Tables 2 and 3 below show two examples of samples of plasma in patients 1 and 2, respectively, for which the amplicons generated by the method above have made it possible to implement the genotyping according to the Trugene and Viroseq techniques and phenotyping according to the Phenoscript technique.
The principle of the tests of phenotypical resistance is based on the measurement in vitro of the growth of a virus in the patient in the presence of drug(s)/active agent(s), compared to a reference virus (resistance index). The level of resistance is defined as a function of thresholds of sensitivity (cut off). A second score of 0 to 2 is attributed to each of the three levels of resistance determined by the interpretation. Table 12 summarizes the interpretations given by the main phenotypical tests, PhenoSense and Phenoscript, as a function of their thresholds of sensitivity and assigns a phenotypical score corresponding to the magnitude of resistance.

Test [2] concerns HIV-1 virus of the patient (protease and inverse transcriptase genes). Put plainly: ViroSeq genotyping, evidence of resistance from the amplicon of patient plasma. Conditions: M184V, T215Y, L63P.
Source text: (§2) The procedure to generate the first specific amplicon is as follows: • 1) Viral RNA contained in a biological sample is extracted. The biological sample may be derived from a sample from the patient. It may be a blood or serum sample, but may also come from a biological fluid or a biopsy or any other tissue preparation. The biological sample may also come from a viral culture. In a general manner, a biological sample corresponds to all types of samples containing one or several HIV-1 variants. The term “HIV-1 virus” in this Example is used to mean any viral strain belonging to the sub-types B and non-B. • 2) The RNA obtained in (1) is retrotranscribed and amplified with one of the pairs of specific primers in Table 1 below to obtain an amplicon characterized by: […]
as §1
The RNA is extracted using plasmas from patients according to a known extraction technique based on the affinity of RNA with respect to silica columns, the viral RNA is retrotranscribed and amplified using PCR with primers specific to the pol gene making possible amplification of a sequence of nucleic acids of 1800 pb comprising, for the protease, codons 1 to 99 and comprising, for the inverse transcriptase, codons 1 to 335. The DNA thus obtained is then sequenced with seven different primers according to the Big Dye™ Terminator technology, a sequencing technique using dye terminators. The sequence reaction is initiated by each specific non-labeled primer, then interrupted by each of the labeled nucleotides. All of the fragments synthesized are then separated on electrophoresis gel. The color of the fluorochrome will then be registered using an automatic sequencer (ABI Prism 377 DNA sequencer), specifically indicating the fragments ending with each of the four labeled nucleotides. The sequences, once reconstituted, are compared to the sequence of a reference virus using an alignment software.
(§3) The measurement of genetic variability is carried out using a specific sequence of nucleic acids amplified according to aspects of the method, then analyzed according to known sequencing techniques (Trugene, ViroSeq). Mutations in the genes of the protease and of the inverse transcriptase identified by these tests are interpreted according to algorithms that are updated regularly. A first score of 0 to 2 is attributed to each of the three levels of resistance determined by the interpretation. Table 11 below summarizes the interpretations given by the Trugene and ViroSeq tests as a function of the mutations identified and of the anti-retroviruses (ARV) used and assigns a genotypical score corresponding to the magnitude of the resistance.

Test [3] shares this test system. Briefly: Trugene genotyping, interpretation of resistances from the amplicon of patient plasma. The settings on record: M184V, T215Y, L63P.
Source text: as §2, §1
The Trugene HIV-1 genotyping kit is used to determine the genotype of the virus of sub-types B and non-B. The RNA is extracted using plasma from patients, according to known techniques, the viral RNA is retrotranscribed and amplified using PCR with primers specific for the pol gene making possible amplification of a sequence of nucleic acids of 1300 pb comprising, for the protease, codons 1 to 99 and comprising, for the inverse transcriptase, codons 1 to 247. The product of RT-PCR thus obtained is used in each of the 16 sequencing reactions by using the principle of CLIP™ reaction, sequencing technique using labeled primers (dye primers). Four pairs of different primers are used for this sequencing method, two pairs for the sequencing of the protease and two other pairs for the sequencing of the inverse transcriptase. Each sequence reaction is initiated by a specific dye primer (CLIP™), then interrupted by the corresponding labeled nucleotide. All of the fragments synthesized are then separated on electrophoresis gel and analyzed by an automatic sequencer specifically indicating the fragments ending with each of the four labeled nucleotides. The sequences, once reconstituted, are compared to the sequence of a reference virus using an alignment software.
as §3

Setting [4] is: Patient 1 plasma sample, mutations D67N, K70R, K219E, K103N, V108I, P225H.
[5] abbreviates: Patient 2 plasma sample, mutations M41L, L210W, M36L.

Consider `CC(C)(C)NC(=O)[C@@H]1C[C@@H]2CCCC[C@@H]2CN1C[C@@H](O)[C@H](Cc1ccccc1)NC(=O)[C@H](CC(N)=O)NC(=O)c1ccc2ccccc2n1` [SQV], for which the “Phenoscript Contribution to the therapeutic response” value in test [1] (Patient 1 plasma sample) and in test [1] (Patient 2 plasma sample) was “Probable” each time. Moreover, the “Viroseq Evidence of resistance” value in test [2] (setting [4]) and in test [2] (setting [5]) was “Zero” throughout. Besides, the “Trugene Interpretation of resistances” value in test [3] (setting [4]) and in test [3] (setting [5]) was “No resistance” each time.
